Experimental data taken from US20260183273A1, “N,N-dialkyl-4-(2-ethylindan-2-yl)-1H-imidazole-1-carboxamides and related compounds for treatment of neurodegenerative diseases” (priority 2023, published 2026).
Like-named read-outs stand apart in the source and are kept apart here.

How the values were obtained:
[1] = Hydrolysis in plasma (LC-MS); type: in vitro ADME, human
Description: Samples were analysed by LC-MS system, which included Thermo Scientific UltiMate 3000 UHPLC liquid chromatograph and Thermo Scientific Exactive Plus Hybrid Quadrupole-Orbitrap mass spectrometer. The general method used a Waters Acquity UPLC® BEH C18 column (2.1×50 mm, 1.7 μm) and Waters Vanguard UPLC® BEH C18 precolumn (2.1×5 mm, 1.7 μm), thermostated at 40° C., with: injection volume, 1 μL; flow rate, 0.4 mL/min; autosampler temperature: 15° C., detector Full MS-SIM (runtime 1.5-3 min, positive mode, resolution: 70 000; AGC target: 3e^6; maximum IT: 200 ms; scan range: 200-300 m/z); mobile phase A: 0.1% formic acid in MQ water; B: 0.1% formic acid in acetonitrile. Gradient: 0-3 min, 20-75% B; 3-3.1 min 75-95% B; 3.1-4 min 95% B; 4-4.1 min 95-20% B; 4.1-6 min 20% B. Processing: ICIS peak detection algorithm, analyte 6—expected retention time: 1.87 min, 30 s window, mass range 213.14; analyte 7—expected retention time: 2.40 min, 30 s window, mass range 284.18.
To construct the calibration curves, the highest concentration (800 nM) stock solution was prepared in plasma, and serially diluted with plasma to different compound concentrations (8, 20, 40, 60, 80, 200, 400, 600, 800 nM). 50 μL of the respective biological sample were diluted with 200 μL MeOH, vortexed, centrifuged at 4° C. and 5000 rpm for 10 min, the supernatant transferred to HPLC vials with inserts, and analysed. 5 replicates were injected to check the precision, and to ascertain the matrix effects in plasma, 0.5 μL of […] 6 was diluted with 49.5 μL of either plasma or MQ water. […] To monitor the progress of 7 hydrolysis in plasma, 1 vol. % of 7.5 μM 7 stock solution was mixed with plasma, 50 μL aliquots were drawn successively after 1, 5, and 60 min and analysed as described above. In a control experiment, the plasma used was pretreated for 5 min with 1 mM ethopropazine to inhibit BChE, then 7 was added, and the above procedure followed.
(§1) As both 7 and BChE were being depleted, near the final timepoint the reaction rate slowed down considerably. […] 7 is readily hydrolysed in contact with plasma BChE—therefore, after an in vivo application (either parenteral or per os), adrenergic-active moiety 6 should be liberated in the bloodstream, permeate the blood-brain barrier, and reach the site of action in the central nervous system.

hBChE = hBChE (Homo sapiens, UniProt P06276); assay: Inhibition of cholinesterases, method of Ellman (hBChE); type: biochemical; details: for hBChE time-dependency observed: yes/no: pre-incubation time varied (1, 5, 15, 30 or 60 min); for hBChE RA-residual activity: mean ± standard deviation, test concentration not given
Description: (§2) For time-dependency measurements, the pre-incubation time was varied (1 min, 5 min, 15 min, 30 min or 60 min). The reactions were started by the addition of the substrate (final concentration, 500 μM butyrylthiocholine iodide or acetylthiocholine iodide for hBChE and hAChE, respectively). The final content of DMSO was always 1%. […] The initial velocities in the presence (vi) and absence (vo) of the test compounds were calculated. The inhibitory potencies were expressed as the residual activities, according to RA=(vi−b)/(vo−b), where b is the blank value using phosphate buffer without ChEs. For IC50 determinations, at least seven different concentrations for each compound were used. The IC50 values were obtained by plotting the residual ChE activities against the applied inhibitor concentrations, with the experimental data fitted to a four-parameter logistic function (GraphPad Prism 9.4). Tacrine and donepezil were used as positive controls.

[2] = target: T1, human α2A adrenoreceptor from CHO cells (Homo sapiens, UniProt P08913); assay: α2A binding assay (Eurofins), antagonist radioligand [3H]RX821002
T1 construct: host or cells: CHO cells
T1 sequence (P08913 1-465): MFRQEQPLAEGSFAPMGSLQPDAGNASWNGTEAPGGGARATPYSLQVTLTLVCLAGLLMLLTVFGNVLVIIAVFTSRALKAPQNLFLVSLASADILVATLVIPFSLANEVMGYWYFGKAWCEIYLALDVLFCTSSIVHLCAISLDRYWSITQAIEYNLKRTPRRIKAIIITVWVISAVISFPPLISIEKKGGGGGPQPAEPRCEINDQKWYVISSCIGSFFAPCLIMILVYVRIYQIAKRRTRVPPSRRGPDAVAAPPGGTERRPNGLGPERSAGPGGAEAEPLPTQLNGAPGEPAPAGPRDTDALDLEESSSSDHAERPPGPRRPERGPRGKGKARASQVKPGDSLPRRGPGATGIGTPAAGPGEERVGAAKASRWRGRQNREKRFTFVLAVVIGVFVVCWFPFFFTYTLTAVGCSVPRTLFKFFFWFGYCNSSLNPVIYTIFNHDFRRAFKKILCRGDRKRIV
Description: In each experiment the respective reference compound (yohimbine) was tested concurrently with the test compounds, and the data were compared with historical values determined at Eurofins. The experiment was accepted in accordance with Eurofins validation Standard Operating Procedure. Inhibition above 50% is considered to represent significant effects of the test compounds. The inhibition constants (Ki) were calculated using the Cheng-Prusoff equation.

hAChE = hAChE (Homo sapiens, UniProt P22303); assay: biochemical; type: biochemical
Description: as §2

[3] = Non-enzymatic hydrolysis (aqueous stability); type: physicochemical; details: compared with hydrolysis in plasma
Description: Reactions were monitored using analytical thin-layer chromatography (TLC) on silica gel 60 F254 Al plates. Developed plates were inspected under UV light and, if necessary, visualized with ninhydrin, vanillin/sulfuric acid, Dragendorff's or potassium permanganate stains. Melting points were determined with Büchi 535 Melting Point Apparatus (uncorrected). Nuclear magnetic resonance spectra were recorded on a Bruker Avance III 400 MHz spectrometer at 400 MHz for ^1H, 100 MHz for ^13C, and 376 MHz for ^19F nucleus, respectively, using CDCl3 with TMS as the internal standard as solvent. […] Mass spectra were recorded on Thermo Scientific Q Executive Plus LC-MS/MS spectrometer and IR spectra on Thermo Nicolet FT-IR spectrophotometer. […] The purities of the tested compounds were established to be ≥95%, as determined by UPLC.
as §1

[4] = control plasma with 1 mM ethopropazine, nominal 75 nM 7, timepoint 60 min
[5] = hydrolysis of 7 in human plasma, nominal 75 nM, timepoint 1 min
[6] = hydrolysis of 7 in human plasma, nominal 75 nM, timepoint 5 min
[7] = hydrolysis of 7 in human plasma, nominal 75 nM, timepoint 60 min
[8] = 5 min preincubation, read-out: hBChE IC50 ± SEM
[9] = pre-incubation time varied (1, 5, 15, 30 or 60 min)

hBChE, sequence (P06276 29-602): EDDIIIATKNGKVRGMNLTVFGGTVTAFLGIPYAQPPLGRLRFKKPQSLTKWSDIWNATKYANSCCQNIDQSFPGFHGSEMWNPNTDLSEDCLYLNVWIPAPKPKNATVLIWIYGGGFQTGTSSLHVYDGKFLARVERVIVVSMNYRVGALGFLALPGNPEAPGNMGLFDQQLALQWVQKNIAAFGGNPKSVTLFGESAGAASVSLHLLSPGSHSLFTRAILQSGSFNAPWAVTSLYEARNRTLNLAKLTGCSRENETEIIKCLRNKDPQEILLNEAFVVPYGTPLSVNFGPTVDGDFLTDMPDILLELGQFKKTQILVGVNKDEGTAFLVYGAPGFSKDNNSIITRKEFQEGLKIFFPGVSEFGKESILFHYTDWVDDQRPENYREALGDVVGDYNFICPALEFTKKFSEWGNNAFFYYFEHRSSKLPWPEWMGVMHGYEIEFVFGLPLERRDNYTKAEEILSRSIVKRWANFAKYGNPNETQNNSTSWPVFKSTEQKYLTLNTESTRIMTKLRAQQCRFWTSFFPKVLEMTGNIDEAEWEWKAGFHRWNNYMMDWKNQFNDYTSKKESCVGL
hAChE, sequence (P22303 32-614): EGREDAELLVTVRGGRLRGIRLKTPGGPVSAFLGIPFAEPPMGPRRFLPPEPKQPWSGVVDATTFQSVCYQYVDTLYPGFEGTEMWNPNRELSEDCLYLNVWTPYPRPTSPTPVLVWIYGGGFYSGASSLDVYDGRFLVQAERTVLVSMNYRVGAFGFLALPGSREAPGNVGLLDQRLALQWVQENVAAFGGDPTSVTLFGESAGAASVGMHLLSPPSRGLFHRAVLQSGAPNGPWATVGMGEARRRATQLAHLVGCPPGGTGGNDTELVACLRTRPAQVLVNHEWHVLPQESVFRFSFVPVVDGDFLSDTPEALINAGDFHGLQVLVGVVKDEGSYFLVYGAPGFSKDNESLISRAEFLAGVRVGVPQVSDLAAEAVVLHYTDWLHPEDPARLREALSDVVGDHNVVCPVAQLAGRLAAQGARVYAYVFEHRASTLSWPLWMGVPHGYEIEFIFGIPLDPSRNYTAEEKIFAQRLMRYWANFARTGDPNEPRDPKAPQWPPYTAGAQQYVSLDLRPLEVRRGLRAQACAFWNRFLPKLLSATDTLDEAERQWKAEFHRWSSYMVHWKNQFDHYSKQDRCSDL

With `CCC1(c2cnc[nH]2)Cc2ccccc2C1` [Compound 6, 4-(2-ethylindan-2-yl)-1H-imidazole] as the compound, how does the concentration of analyte [1, 4] read?
The concentration of analyte was 9.816 nM.

And the concentration of analyte [1, 5]?
The concentration of analyte was 15.911 nM.

And the concentration of analyte [1, 6]?
The concentration of analyte was 29.071 nM.

What about the concentration of analyte [1, 7] of the same compound?
The concentration of analyte was 65.375 nM.

What does the source list for `CCC1(c2cn(C(=O)N(C)C)cn2)Cc2ccccc2C1` [Compound 7, 4-(2-Ethylindan-2-yl)-N,N-dimethyl-1H-imidazole-1-carboxamide]?
IC50 (hBChE; [8]): 12.6 ± 2 nM; hBChE time-dependency observed: yes/no (hBChE): yes; inhibition at 1 µM [2]: 6%; hAChE time-dependency observed: yes/no (hAChE): 30507 ± 6304 yes; IC50 (hAChE; read-out: hAChE IC50 ± SEM): 30500 ± 6300 nM; concentration of analyte ([1]; control plasma with 1 mM ethopropazine, nominal 75 nM 7, timepoint 1 min): 74.477 nM; concentration of analyte ([1]; control plasma with 1 mM ethopropazine, nominal 75 nM 7, timepoint 5 min): 72.158 nM; concentration of analyte [1, 4]: 71.131 nM; concentration of analyte [1, 5]: 66.508 nM; concentration of analyte [1, 6]: 55.665 nM; concentration of analyte [1, 7]: 22.431 nM; non-enzymatic hydrolysis rate [3]: several orders of magnitude slower

For `CCN(CC)C(=O)n1cnc(C2(CC)Cc3ccccc3C2)c1` [Compound 8, N,N-diethyl-4-(2-ethylindan-2-yl)-1H-imidazole-1-carboxamide], which IC50 (hBChE; [8]) is on record?
Its IC50 is 1460 ± 218 nM.

And the “hBChE time-dependency observed: yes/no” value (hBChE)?
The value was “yes”.

What about the “hAChE IC50 ± SEM” value (hAChE) of the same compound?
Its value is “Not active (66.8 ± 4.7%) no”.

And the “hAChE RA-residual activity” value (hAChE)?
The value was “Not active (66.8 ± 4.7%) no”.

Which results are given for `CCC1(c2cn(C(=O)N(C)C)c[n+]2C)Cc2ccccc2C1` [Compound 9, 1-(Dimethylcarbamoyl)-4-(2-ethylindan-2-yl)-3-methyl-1H-imidazol-3-ium trifluoromethanesulfonate]?
IC50 (hBChE): 4.18 ± 0.77 nM; hBChE time-dependency observed: yes/no (hBChE): yes; IC50 (hAChE): 431 ± 113 nM; hAChE time-dependency observed: yes/no (hAChE; [9]): yes

Which results are given for `CCC1(c2cn[nH]n2)Cc2ccccc2C1` [Compound 13, 4-(2-Ethylindan-2-yl)-2H-1,2,3-triazole]?
hBChE IC50 ± SEM (hBChE; 5 min preincubation): Not active; hBChE RA-residual activity (hBChE; 5 min preincubation): 60.3 ± 1.0%; inhibition at 1 µM [2]: 6.1%; hAChE IC50 ± SEM (hAChE): Not active (87.3 ± 7.5%); hAChE RA-residual activity (hAChE): Not active (87.3 ± 7.5%)

For `CCC1(c2cnn(C(=O)N(C)C)n2)Cc2ccccc2C1` [Compound 14, 4-(2-Ethylindan-2-yl)-N,N-dimethyl-2H-1,2,3-triazole-2-carboxamide], which IC50 (hBChE; [8]) is on record?
The IC50 was 2.39 ± 0.63 nM.

What about the “hBChE time-dependency observed: yes/no” value (hBChE) of the same compound?
Its value is “yes”.

And the “hAChE time-dependency observed: yes/no” value (hAChE)?
Its value is 180.9 ± 35.5 yes.

What about the IC50 (hAChE; read-out: hAChE IC50 ± SEM) of the same compound?
The IC50 was 181 ± 35.5 nM.

For `CCC1(c2nc[nH]n2)Cc2ccccc2C1` [Compound 15, 3-(2-Ethylindan-2-yl)-1H-1,2,4-triazole], which “hBChE IC50 ± SEM” value (hBChE; 5 min preincubation) is on record?
Its value is “Not active”.

And the “hBChE RA-residual activity” value (hBChE; 5 min preincubation)?
The value was 95.9 ± 6.8%.

What about the inhibition at 1 µM [2] of the same compound?
Its inhibition at 1 µM is 2.1%.

And the “hAChE IC50 ± SEM” value (hAChE)?
The value was “Not active (79.8 ± 7.0%)”.

And the “hAChE RA-residual activity” value (hAChE)?
The value was “Not active (79.8 ± 7.0%)”.

With `CCC1(c2ncn(C(=O)N(C)C)n2)Cc2ccccc2C1` [Compound 16, 3-(2-Ethylindan-2-yl)-N,N-dimethyl-1H-1,2,4-triazole-1-carboxamide] as the compound, how does the IC50 (hBChE; [8]) read?
The IC50 was 4.12 ± 0.35 nM.

And the “hBChE time-dependency observed: yes/no” value (hBChE)?
The value was “yes”.

What about the IC50 (hAChE; read-out: hAChE IC50 ± SEM) of the same compound?
The IC50 was 1980 ± 239 nM.

For `CCC1(c2cn(C(=O)N(C)Cc3ccccc3)cn2)Cc2ccccc2C1` [Compound 17, N-benzyl-4-(2-ethylindan-2-yl)-N-methyl-1H-imidazole-1-carboxamide], which IC50 (hBChE; [8]) is on record?
The IC50 was 95.7 ± 17.1 nM.

What about the “hBChE time-dependency observed: yes/no” value (hBChE) of the same compound?
Its value is “yes”.

What about the “hAChE RA-residual activity” value (hAChE) of the same compound?
The value was 46.4 ± 3.3% yes.

What does the source list for `CCC1(c2cn(C(=O)N3CCCCC3)cn2)Cc2ccccc2C1` [Compound 18, (4-(2-ethylindan-2-yl)-1H-imidazol-1-yl)(piperidin-1-yl)methanone]?
IC50 (hBChE; [8]): 4.8 ± 0.944 nM; hBChE time-dependency observed: yes/no (hBChE): yes; IC50 (hAChE; read-out: hAChE IC50 ± SEM): 5180 ± 1620 nM

Which IC50 (hBChE; [8]) does the source give for `[2H]C([2H])([2H])C([2H])([2H])C1(c2cn(C(=O)N(CC)CC)cn2)Cc2ccccc2C1` [Compound 21, N,N-diethyl-4-(2-(ethyl-d5)indan-2-yl)-1H-imidazole-1-carboxamide] here?
The IC50 was 7830 ± 1320 nM.

What about the “hBChE time-dependency observed: yes/no” value (hBChE) of the same compound?
Its value is “yes”.

What about the “hAChE RA-residual activity” value (hAChE; 5 min preincubation, mean ± standard deviation, test concentration not given) of the same compound?
The value was 58.9 ± 2.3%.

And the “hAChE time-dependency observed: yes/no” value (hAChE; [9])?
The value was “yes”.
